Measured values taken from PubChem BioAssay AID1963427 (Molecular Pharmacology Branch, DTP, NCI, 2024).
Values joined by “and” are separate entries in the source; they are usually repeats but may differ in a detail not shown here. Equal entries are not always repeated.

System: 317291-083-R-J1-PDC complex spheroid growth
Assay: Anticancer human tumor 317291-083-R-J1-PDC patient-derived soft tissue sarcoma cell line growth inhibition [Asc]
Conditions: for viability, T/C: stronger effect = lower value
Description: Multicellular complex tumor spheroid response to apoptosis pathway targeting inhibitors Alrizomadlin, Pelcitoclax, and Dasminapant in combination with a variety of drugs and investigational agents in selected tumor cell lines
The MDM2 inhibitor alrizomadlin, the Bcl-2/Bcl-xL inhibitor pelcitoclax, and the IAPs inhibitor dasminapant were evaluated both individually and in combination with standard of care and investigational anticancer small molecules within a complex spheroid model of solid tumors. . Complex spheroids include a stromal component modeled by human endothelial cells (HUVEC) and fibroblasts modeled by human mesenchymal stem cells (MSCs). The concentration ranges selected for each drug and investigational agent were based upon clinically achievable concentrations if the clinical Cmax of the agent was known.
Compounds. The drugs and investigational agents: alrizomadlin (APG-115; NSC831270), pelcitoclax (APG-1252; NSC835773), dasminapant (APG-1387;NSC834197), TAK-243 (NSC785004), copanlisib (NSC809693), olaparib (NSC753686), talazoparib (NSC767125), cobimetinib (NSC 768068), eltanexor (KPT-8602, NSC 794443), abemaciclib (NSC 768073), sotorasib (NSC818433), adagrasib (NSC 831453), MRTX-1133 (NSC 836407), Iadademestat (ORY1001, NSC 806812), and RMC-4630 (NSC839698), were obtained from the NCI Developmental Therapeutics Program Chemical Repository. The FDA-approved anticancer drug set is available from the Developmental Therapeutics Program at https://dtp.cancer.gov/organization/dscb/obtaining/available plates.htm. […] The stock solutions were prepared in dimethyl sulfoxide (DMSO, Sigma-Aldrich, St. Louis, MO, cat. D2650) at 800-fold the tested concentration and stored at -70 degrees C prior to their use. All drugs and investigational agents were tested over a range starting from a high concentration at or near the clinical Cmax and decreasing in half-log increments. If the clinical Cmax for an agent had not been determined, the highest concentration tested was 10 microM.
The patient-derived cancer (PDC) cell lines include five colon adenocarcinomas: 186277-243-T-J2-PDC, 616215-338-R-J1-PDC, 439559-082-T-J2-PDC, 463943-066-T-J2-PDC, and 519858-162-T-J1-PDC; three pancreatic carcinomas: 323965-272-R-J2-PDC, 521955-158-R6-J3-PDC, and 521955-158-R2-J5-PDC; two uterine sarcomas: 327498-152-R-J2-PDC and 993429-296-R-J1-PDC; two rhabdomyosarcomas: 755483-174-R-J1-PDC and 772245-204-R-J1-PDC; two soft tissue sarcomas: 126254-015-R-J1-PDC and 494315-158-R-J1-PDC; two malignant fibrous histiocytomas: 317291-083-R-J1-PDC and 596521-263-R-J1-PDC; two breast carcinomas: 171881-019-R-J1-PDC and 885512-296-R-J2-PDC; and one ovarian carcinoma: 6556581-035-R-J-PDC were obtained from the NCI PDMR, (https://pdmr.cancer.gov). The established cell lines HSSY-2 synovial sarcoma (RRID:CVCL 8719), SYO-1 synovial sarcoma (RRID:CVCL_7146), MPNST malignant peripheral neural sheath tumor were obtained from the Sloan Kettering Institute. The following established cell lines were purchased from the American Type Culture Collection (ATCC, Manassas, VA), Sor the received from the NCI repository:, PANC-1 pancreatic carcinoma (CRL-1469, RRID:CVCL_0480), OVCAR-5 ovarian carcinoma (RRID:CVCL_1628), OVCAR-8 ovarian carcinoma (RRID:CVCL_1629), , MCF-7 breast carcinoma (CRL-12584, RRID:CVCL_0031), MDA-MB-231 breast carcinoma (CRL-12532, RRID:CVCL_0062), NCI-H1876 small cell lung carcinoma (CRL-5902, RRID:CVCL_1503), NCI-H510A small cell lung carcinoma (HTB-184, RRID:CVCL_1565), NCI-H1417 (CRL-5869, RRID:CVCL_1469), and NCI-H196 small cell lung carcinoma (CRL-5823, RRID:CVCL_1509). Dr. Peter Houghton (Greehey Children's Cancer Research Institute, University of Texas Health Science Center, San Antonio, TX) provided Rh-18 rhabdomyosarcoma (RRID:CVCL_1659). Pooled donor human umbilical vein endothelial cells (HUVEC, Lonza, cat. CC-2519) and human mesenchymal stem cells (hMSC, Lonza, cat. PT-2501) were purchased from Lonza (Walkersville, MD).
Cell Culture. […]

[1] = compound alone, run of 11/07/2022
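Also: compound exposure lasted seven days after spheroids formed for three days.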
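For viability, T/C in this document: 100% = DMSO vehicle control wells.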

With C#Cc1c(F)ccc2cc(O)cc(-c3ncc4c(N5CC6CCC(C5)N6)nc(OCC56CCCN5CC(F)C6)nc4c3F)c12 (configuration not stated) the viability, T/C (compound 0.0316 µM) was 86.9% and 91% and 105%, the viability, T/C (compound 0.1 µM) was 84.9% and 99.4% and 85.2% and the viability, T/C (compound 0.316 µM) was 87.6% and 108% and 105%. The viability, T/C (compound 1 µM) was 97.5% and 103% and 102%, the viability, T/C (compound 3.16 µM) was 95.8% and 90.8% and 94.6% and the viability, T/C (compound 10 µM) was 56.1% and 72.7% and 85.2%. For the same molecule, the IC50 (curve of compound) was > 10 µM.

With C=C(F)C(=O)N1CCN(c2nc(OCC3CCCN3C)nc3c2CCN(c2cccc4cccc(Cl)c24)C3)CC1CC#N (configuration not stated) the viability, T/C (compound 0.0316 µM) was 83.4% and 107% (2×), the viability, T/C (compound 0.1 µM) was 76.7% and 88.1% and 99.1% and the viability, T/C (compound 0.316 µM) was 93.2% and 95.1% and 113%. The viability, T/C (compound 1 µM) was 89% and 89.6% and 87.7%, the viability, T/C (compound 3.16 µM) was 47% and 39% and 55.3% and the viability, T/C (compound 10 µM) was 0.16% and 0.29% and 0.23%. The IC50 (curve of compound) was 2.89 µM and 2.46 µM and 3.47 µM.

C=CC(=O)N1CCN(c2nc(=O)n(-c3c(C)ccnc3C(C)C)c3nc(-c4c(O)cccc4F)c(F)cc23)C(C)C1 (configuration not stated) was tested, and the viability, T/C (compound 0.0316 µM) was 94.7% and 115% and 91.3%, the viability, T/C (compound 0.1 µM) was 116% and 91.4% and 84% and the viability, T/C (compound 0.316 µM) was 97.3% and 95.1% and 99.8%. The viability, T/C (compound 1 µM) was 117% and 90.1% and 95.4%, the viability, T/C (compound 3.16 µM) was 92.4% and 89.8% and 78.8% and the viability, T/C (compound 10 µM) was 61% and 73.1% and 78%. The IC50 (curve of compound) was > 10 µM.

CCN1C(C(=O)NC23CCC(C(=O)O)(CC2)CC3)C(c2cccc(Cl)c2F)C2(C(=O)Nc3cc(Cl)ccc32)C12CCCCC2 (configuration not stated) was tested, and the viability, T/C (compound 0.0949 µM) was 96.6% [middle of 9 runs], the viability, T/C (compound 0.3 µM) was 95.2% [middle of 9 runs] and the viability, T/C (compound 3 µM) was 87.6% [middle of 9 runs]. The IC50 [1] was > 3 µM and the IC50 (curve of compound) was > 3 µM.

For CCN1CCN(Cc2ccc(Nc3ncc(F)c(-c4cc(F)c5nc(C)n(C(C)C)c5c4)n3)nc2)CC1, the viability, T/C (compound 0.00316 µM) was 91.8% and 94.4% and 104%, the viability, T/C (compound 0.01 µM) was 93.8% and 95.1% (2×) and the viability, T/C (compound 0.0316 µM) was 99.1% and 98.7% and 102%. For the same molecule, the viability, T/C (compound 0.1 µM) was 101% and 97.3% and 89.7%, the viability, T/C (compound 0.316 µM) was 72.4% and 84.1% and 82.4% and the viability, T/C (compound 1 µM) was 49.5% and 82.8% and 50.7%. The IC50 (curve of compound) was > 1 µM.

With CNC(C)C(=O)NC1CN(S(=O)(=O)c2cccc(S(=O)(=O)N3CCC4CCC(C(=O)NC(c5ccccc5)c5ccccc5)N4C(=O)C(NC(=O)C(C)NC)C3)c2)CCC2CCC(C(=O)NC(c3ccccc3)c3ccccc3)N2C1=O (configuration not stated) the viability, T/C (compound 0.0316 µM) was 72.8% [middle of 9 runs] and the IC50 (curve of compound) was 0.254 µM and 0.416 µM.

COc1c(OCCCN2CCOCC2)ccc2c3n(c(=NC(=O)c4cnc(N)nc4)nc12)CCN3 was tested, and the viability, T/C (compound 0.00316 µM) was 92% and 97.6% and 96.2%, the viability, T/C (compound 0.01 µM) was 90.5% and 100% and 93.7% and the viability, T/C (compound 0.0316 µM) was 73.5% and 93.8% and 80.6%. For the same molecule, the viability, T/C (compound 0.1 µM) was 49.4% and 56.9% and 59.9%, the viability, T/C (compound 0.316 µM) was 25.9% and 37.9% and 33.4% and the viability, T/C (compound 1 µM) was 12.6% and 21.9% and 15.6%. The IC50 (curve of compound) was 0.149 µM and 0.158 µM and 0.103 µM.

With Cc1c(S(C)(=O)=O)c(-c2cc(F)cc(N3CCN(c4ccc(NS(=O)(=O)c5ccc(NC(CCN6CCC(C(=O)OCCCP(=O)(O)O)CC6)CSc6ccccc6)c(S(=O)(=O)C(F)(F)F)c5)cc4)CC3)c2)c(-c2ccc(Cl)cc2)n1C(C)C (configuration not stated) the viability, T/C (compound 0.0316 µM) was 98% [middle of 7 runs], the viability, T/C (compound 0.316 µM) was 93.2% [middle of 7 runs] and the viability, T/C (compound 3.16 µM) was 81% [middle of 7 runs]. The IC50 [1] was > 10 µM.

For Cc1nc(N2CCC3(CC2)COC(C)C3N)c(CO)nc1Sc1ccnc(N)c1Cl (configuration not stated), the viability, T/C (compound 0.00949 µM) was 108% and 113% and 102%, the viability, T/C (compound 0.03 µM) was 83.1% and 90.6% and 95.5% and the viability, T/C (compound 0.0949 µM) was 79.3% and 103% and 99.2%. For the same molecule, the viability, T/C (compound 0.3 µM) was 73.6% and 89.4% and 77.2%, the viability, T/C (compound 0.949 µM) was 59.2% and 66.4% and 64.5% and the viability, T/C (compound 3 µM) was 43.2% and 58.9% and 51%. The IC50 (curve of compound) was 2 µM and > 3 µM.

With Cn1ncnc1[C@H]1c2n[nH]c(=O)c3cc(F)cc(c23)N[C@@H]1c1ccc(F)cc1 the viability, T/C (compound 0.000316 µM) was 99% and 111% and 93.9%, the viability, T/C (compound 0.001 µM) was 81.6% and 81.9% and 107% and the viability, T/C (compound 0.00316 µM) was 80.5% and 107% and 99%. For the same molecule, the viability, T/C (compound 0.01 µM) was 89.2% and 87.3% and 89%, the viability, T/C (compound 0.0316 µM) was 68.7% and 96.5% and 83% and the viability, T/C (compound 0.1 µM) was 70.7% and 81% and 56.7%. The IC50 (curve of compound) was > 0.1 µM.

In the case of NC(=O)C(=Cn1cnc(-c2cc(C(F)(F)F)cc(C(F)(F)F)c2)n1)c1cncnc1, the viability, T/C (compound 0.000949 µM) is reported as 92.5% and 89.6% and 23.9%, the viability, T/C (compound 0.003 µM) is reported as 88.1% and 74.5% and 25.9% and the viability, T/C (compound 0.00949 µM) is reported as 92.4% and 72% and 36.3%. The viability, T/C (compound 0.03 µM) was 45.8% and 39.8% and 16%, the viability, T/C (compound 0.0949 µM) was 6.6% and 6.29% and 7.34% and the viability, T/C (compound 0.3 µM) was 3.75% and 1.91% and 3.91%.

With NC1CCC(NC2CC2c2ccccc2)CC1 (configuration not stated) the viability, T/C (compound 0.000316 µM) was 107% and 84.4% and 104%, the viability, T/C (compound 0.001 µM) was 97.8% and 80.7% and 96.1% and the viability, T/C (compound 0.00316 µM) was 84.8% and 99.5% and 109%. The viability, T/C (compound 0.01 µM) was 95.1% and 93.7% and 104%, the viability, T/C (compound 0.0316 µM) was 91.5% and 112% and 96.1% and the viability, T/C (compound 0.1 µM) was 97.7% and 80.4% and 90%. For the same molecule, the IC50 (curve of compound) was > 0.1 µM.

In the case of O=C(c1cc(Cc2n[nH]c(=O)c3ccccc23)ccc1F)N1CCN(C(=O)C2CC2)CC1, the viability, T/C (compound 0.0316 µM) is reported as 106% and 111% and 91.2%, the viability, T/C (compound 0.1 µM) is reported as 76.1% and 100% and 97% and the viability, T/C (compound 0.316 µM) is reported as 110% and 87.8% and 93.8%. The viability, T/C (compound 1 µM) was 83% and 101% and 88.7%, the viability, T/C (compound 3.16 µM) was 82.7% and 84.3% and 47.8% and the viability, T/C (compound 10 µM) was 42.5% and 46.9% and 32.5%. The IC50 (curve of compound) was 8.07 µM and 9.24 µM and 2.97 µM.

In the case of O=C(c1ccc(F)c(F)c1Nc1ccc(I)cc1F)N1CC(O)([C@@H]2CCCCN2)C1, the viability, T/C (compound 0.00316 µM) is reported as 97% and 91.5% and 98.6%, the viability, T/C (compound 0.01 µM) is reported as 102% and 91.8% and 91% and the viability, T/C (compound 0.0316 µM) is reported as 109% and 88.6% and 93.6%. For the same molecule, the viability, T/C (compound 0.1 µM) was 94.1% and 119% and 117%, the viability, T/C (compound 0.316 µM) was 65.2% and 71.6% and 81.1% and the viability, T/C (compound 1 µM) was 19.6% and 18.1% and 25%. For the same molecule, the IC50 (curve of compound) was 0.462 µM and 0.504 µM and 0.599 µM.
